Columns and labels:
[1] = Binding affinity to tobacco 14-3-3epsilon T14-3eDC mutant expressed in Escherichia coli assessed as Kd for 14-3-3epsilon binding to H+-ATPase peptide motif by surface plasmon resonance assay; design: species or system Nicotiana tabacum
[2] = molecular target: T1, 14-3-3 protein zeta/delta (Homo sapiens, UniProt P63104); assay: Binding affinity to human GST-tagged 14-3-3zeta expressed in Escherichia coli assessed as Kd for 14-3-3zeta binding to H+-ATPase peptide motif by isothermal titration calorimetric method
T1 sequence (P63104 whole entry): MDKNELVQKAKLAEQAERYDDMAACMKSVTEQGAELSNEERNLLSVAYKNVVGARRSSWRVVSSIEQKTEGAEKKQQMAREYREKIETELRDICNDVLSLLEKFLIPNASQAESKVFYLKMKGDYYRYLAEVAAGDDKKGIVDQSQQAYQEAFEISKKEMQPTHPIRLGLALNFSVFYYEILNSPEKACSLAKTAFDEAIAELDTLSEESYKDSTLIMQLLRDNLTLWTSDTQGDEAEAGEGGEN

Kd [2] [µM]	Compound	Kd [1] [µM]
	CC(C)CC(NC(=O)[C@H](O)[C@H](N)Cc1ccccc1)C(=O)O (stereo partly drawn)	1.8
	O=C(C1=C(O)C(=O)N(c2ccc(O)c(C(=O)O)c2)C1c1ccc([N+](=O)[O-])cc1)c1ccccc1 (stereo not drawn)	80
0.7	C=CC(C)(C)OC[C@H]1O[C@H](O[C@@H]2C3=C([C@H](C)COC(C)=O)C[C@H](O)[C@]3(C)/C=C3/[C@@H](COC)CC[C@H]3[C@@H](C)[C@H]2O)[C@H](O)[C@@H](OC(C)=O)[C@@H]1O	

Source: ChEMBL document CHEMBL4229430, “Inducing protein-protein interactions with molecular glues” (Bioorg Med Chem Lett, 2018)
